Legend:
[1] = test system: T cells; assay: Cytoskeleton rearrangement: CCL21-induced actin polymerization (FITC-phalloidin, flow cytometry); assay type: cell-based, mouse
Method: T cells were pre-incubated in the presence or absence of CCL2 (1 ng/ml, PeproTech) for 1 hour and were then stimulated with CCL21 (SLC, 100 ng/ml, PeproTech). Cells were fixed by 3.7% formaldehyde solution (Merck) and cytoskeleton rearrangement was analyzed by flow cytometry following staining with fluorescein isothiocyanate (FITC)-phalloidin, as was previously described [Flaishon et al., J. Biol. Chem. (2001) 276: 46701-46706].
For CD151 activation leading to cytoskeletal rearrangement-T cells were pretreated with either 2 μg/ml of activating antibody specific for the extracellular domain of CD151 (Santa Cruz) or with an isotype control antibody IgG rabbit anti mouse (ImmunoResearch Labs.inc)/anti CUL1 (Santa Cruz) for 1 hour/20 hours.
For blocking CD151− T cells were pretreated for 1 hour with 10 μg/ml blocking anti-CD151 antibody (BD pharmingen) or with 10 μg/ml control antibody anti-IgG (ImmunoResearch Labs.inc)/anti KPL1 (Chemicon).
Next, a 100 ng/ml chemokine CCL21 (SLC, PeproTech) stimulation was carried out and the cells were fixed by 3.7% formaldehyde solution (Merck), permeabilized and stained with fluorescein isothiocyanate (FITC)-phalloidin, as was previously described [Flaishon et al., J. Biol. Chem. (2001) 276: 46701-46706]. Cytoskeleton rearrangement was analyzed by flow cytometry.
1×10^7 T cells were incubated in the presence or absence of CCL2 for 10 minutes, followed by stimulation with either activating anti-CD151 (Santa Cruz, 2 μg/ml) or an isotype control antibody IgG rabbit anti mouse (ImmunoResearch Labs.inc, 2 μg/ml) for 1 hour. The cells were then stimulated with CCL21 (100 ng/ml) and actin polymerization was analyzed.
Cells were fixed by 3.7% formaldehyde solution (Merck), and cytoskeleton rearrangement was analyzed by flow cytometry following staining with fluorescein isothiocyanate (FITC)-phalloidin, as was previously described [Flaishon et al. (2001), supra].

[2] = test system: CD151; assay: CD151 mRNA expression in T cells (DNA chip array, RT-PCR, real-time PCR); assay type: cell-based, mouse
Method: (§1) 1×10^7 T cells from control C57BL/6 or CCR2−/− mice were suspended in 1 ml RPMI medium containing 10% (v/v) FCS. Next, 1 ng/ml of CCL2 (PeproTech) was added to half of the tubes (the other half was kept as a control), and the tubes were placed at 37° C. for different time periods (see the results section below). After incubation, the cells were washed and used for the different experiments.
Total RNA was isolated from cells using the Tri reagent kit (Molecular Research Center, Inc). Reverse transcription was carried out using Superscript II RT (Gibco-BRL) and the primers: […]
To obtain differential expression data of the T cells following CCL2 incubation, the differences between mRNA levels in this cell population were identified by screening mouse DNA chip arrays using the Affymatrix genechip expression analysis system (mouse 430 A2.0). The system consisted of two parameters: probe array and RNA target. Probe array included approximately 20,000 murine genes and ESTs. Each gene or EST was analyzed with approximately 20 pairs of specific, unique 25 mer-oligonucleotides probe. Each probe type was located in a specific area called probe cell. Each probe cell contained millions of copies of a given probe. All probe cells together made up the probe array (Affymetrix Genechip Expression Technical Manual). RNA from CCL2 treated T cells and from control T cells was converted to cDNA and then in vitro transcribed while labeled with biotin (see methods for RNA isolation and cells separation). The target RNA was hybridized to the probe array. The hybridized probe array was stained with streptavidin phycoerythrin conjugate and scanned by the GeneArray scanner. The amount of light emitted was proportional to the bound target at each location on the probe array. The two populations were compared according to the hybridization intensity in each cell.
mRNA levels of actin and CD151 were analyzed by quantitative real-time RT-PCR using a Light-Cycler instrument (Roche Diagnostics, Mannheim, Germany). […]

[3] = test system: CD151; assay: CD151 cell surface expression on T cells (flow cytometry); assay type: cell-based, mouse; conditions: CCL2 1 ng/ml
Method: Freshly isolated T cells were pre-incubated in the presence or absence of CCL2 (1 ng/ml, PeproTech) for several time periods (see the results section below). After incubation the cells were double stained with anti-CD3 (Pharmagene) and anti-CD151 (Santa Cruz) and the secondary antibody alexa goat anti rabbit (Invitrogene) was used. Expression of the stained proteins was analyzed by flow cytometry.

[4] = test system: CD151/VLA4 complex; assay: Co-immunoprecipitation of CD151 with β1 integrin (CD151/VLA4 complex); assay type: cell-based, mouse
Method: as §1
Stimulated frozen cells were lysed in lysis buffer containing: 25 mM Tris, pH 7.4; 2 mM Vanadate; 75 mM glycophosphate, pH 7.2; 2 mM EDTA; 2 mM EGTA; 10 mM NaPPi; and 0.5% NP-40, in the presence of the following protease inhibitors: 10 mg/ml Leupeptin; 10 mg/ml aprotinin; 10 mg/ml pepstatin; 10 mg/ml chymostatin (Roche); 1 mM PMSF (Sigma); and 20 mM N-etheyl-melamide (Sigma).
(§2) Protein G-Sepharose beads (GE Healthcare) were conjugated to Tyr (P) monoclonal antibody (Santa Cruz) or to anti-CD151 (Santa Cruz) for 2 hours at 4° C. followed by three washes in phosphate-buffered saline. Beads were added to the cell lysates and proteins were immunoprecipitated overnight. The protein G-bound material was washed three times with phosphate-buffered saline containing 0.1% SDS and 0.5% Nonidet P-40. Immunoprecipitates were separated by SDS-PAGE. […]

[5] = test system: β-catenin; assay: Detection of β-catenin phosphorylation in T cells; assay type: cell-based, mouse; conditions: CCL2 1 ng/ml 10 minutes before activating anti-CD151 5 minutes, FIG. 4F
Method: 1×10^7 T cells were suspended in 1 ml RPMI medium containing 10% (v/v) FCS. The cells were stimulated with either 2 μg/ml anti-CD151 (Santa Cruz) or an isotype control antibody IgG rabbit anti mouse (ImmunoResearch Labs.inc). Thereafter, the cells were immediately placed at 37° C. for 5 minutes. Immediately after stimulation, the cells were fast frozen in liquid N2 and were lysed in lysis buffer containing: 25 mM Tris, pH 7.4; 2 mM Vanadate; 75 mM glycophosphate, pH 7.2; 2 mM EDTA; 2 mM EGTA; 10 mM NaPPi; and 0.5% NP-40, in the presence of the following protease inhibitors: 10 mg/ml Leupeptin; 10 mg/ml aprotinin; 10 mg/ml pepstatin; 10 mg/ml chymostatin (Roche); 1 mM PMSF (Sigma); and 20 mM N-etheyl-melamide (Sigma).
as §2, with “Cruz)” for “Cruz) or to anti-CD151 (Santa Cruz)”, “C.,” for “C.”, “SDS-PAGE. The protein bands were transferred onto a nitrocellulose membrane and probed with anti β-cat (BD Transduction Laboratories) followed by horseradish peroxidase-conjugated anti-mouse IgG (Jackson ImmunoResearch Labs, West Grove, Pa.).” for “SDS-PAGE.”

[6] = test system: LFA-1; assay: Laminar flow adhesion assay: LFA-1 mediated adhesion to ICAM-1 triggered by CCL21; assay type: cell-based; conditions: mouse T cells pre-treated, FIGS. 4G-J
Method: Purified ICAM-1-Fc (R&D Systems, Minneapolis, Minn.) were coated alone or with mouse CCL21 (R&D Systems) on polystyrene plates, as previously described [Grabovsky V et al. (2000) J Exp Med. 192, 495-506; Sigal A et al. (2000) J. Immunol. 165, 442-452]. The polystyrene plates were each assembled on the lower wall of the flow chamber as previously described [Feigelson S W et al. (2001) J Biol. Chem. 276, 13891-13901]. All flow experiments were conducted at 37° C.
Mouse T cells were purified and re-suspended in HBSS++ (HBSS, Mg^2+Ca^2+) with ICAM-1-Fc or mCCL2 for 1 hr. Cells were then perfused through the flow chamber at low shear stress (0.5-0.75 dyn/cm2) for 2 min. Tethers were defined as transient or rolling if cells attached briefly (less than 2 seconds) to the substrate, and as arrests if cells immediately arrested and remained stationary for at least 5 seconds of continuous flow. To assess adhesion strengthening, post arrest resistance to detachment over time was determined. Accumulated cells were subjected to a shear stress of 5 dyn/cm^2 for 10 minutes. At the indicated time points, the number of cells that remained bound was expressed relative to T cell population originally accumulated in the first 2 minutes of the assay.

[7] = test system: T lymphocyte; conditions: picomolar levels of CCL2; Flaishon et al. 2008, WO 2008/012796; cited from earlier work
[8] = picomolar circulating CCL2; Flaishon et al. 2008, WO 2008/012796; cited from earlier work

For “CCL2: chemokine, also called Macrophage Chemotactic Protein-1 or MCP-1 (PeproTech), used at picomolar levels, 1 ng/ml”, the “actin polymerization elevation induced by CD151 activation” value (from here on “actin polymerization elevation induced”) ([1]; CCR2-/- T cells, CCL2 10 minutes before activating anti-CD151, FIG. 4D) was “not apparent”, the CCL21-induced actin polymerization ([1]; control T cells, CCL2 1 ng/ml (pM levels) 1 hour, then CCL21 100 ng/ml, FIGS. 1A-B) was “suppressed actin polymerization” and the “actin polymerization elevation induced” value ([1]; control T cells, longer CCL2 incubation (20 hours), FIG. 4E) was “maintained”. The “actin polymerization elevation induced” value ([1]; control T cells, pM CCL2 10 minutes before activating anti-CD151 1 hour, then CCL21, FIG. 4C) was “completely abolished”, the “transcription of CD151 (RT-PCR)” value ([2]; CCR2-/- T cells, pM CCL2, FIG. 1D) was “no inhibition was observed” and the “differential gene expression of CD151 (DNA chip array)” value ([2]; T cells incubated 2 hours with CCL2) was “downregulated”. The “transcription of CD151 (RT-PCR)” value ([2]; control naive T cells, pM CCL2, 1, 2 or 4 hours, FIG. 1C) was “downregulated following 2 and 4 hour incubations”, the “CD151 cell surface expression” value ([3]; CCR2-/- T cells, FIG. 1G) was “no change was detected” and the “CD151 cell surface expression” value ([3]; control T cells, different time periods, FIGS. 1E-F) was “downregulated CD151 cell surface expression levels”. For the same substance, the “CD151/VLA4 complex (β1 integrin pulled down with CD151)” value ([4]; CCR2-/- T cells incubated with CCL2, FIG. 4B) was “no effect”, the “CD151/VLA4 complex (β1 integrin pulled down with CD151)” value ([4]; control T cells incubated with CCL2, several time periods, FIG. 4A) was “disappearance of the CD151/VLA4 complex” and the “β-catenin phosphorylation induced by CD151 activation” value [5] was “completely abolished”. The “adhesion strengthening after arrest (resistance to detachment)” value ([6]; continuous/high shear stress) was “failed to remain firmly adhered”, the “LFA-1 activation by surface bound CCL21 (arrest/accumulation on ICAM-1)” value ([6]; low shear stress) was “minor effect” and the “T lymphocyte homing to peripheral lymph nodes” value [7] was “inhibit T lymphocyte homing to peripheral lymph nodes”. For the same substance, the “progression of asthma and adjuvant arthritis” value [8] was “attenuated progression of both asthma and adjuvant arthritis”.
